Results as given in patent US11566007B2, “Ras inhibitors” (Revolution Medicines, Inc., priority 2019, dated 2023).

Tests used:
[1] = target: KRAS G12V (Homo sapiens (Human), UniProt P01116+P62937, G12V); test: Ras-Raf (BRAF RBD) disruption / FRET / MOA assay, KRAS G12V; type: biochemical; settings: read-out: IC50* KRAS G12V FRET data
Summary of the method: (§1)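 Ras:RAF disruption was scored as a fall in TR-FRET ratio relative to DMSO. Compound ranged in 3-fold steps over 10 points from 30 μM final; incubation ran 3 h at 25° C, detection antibodies a further 1.5 h. Reported as IC50.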

[2] = target: KRAS G13D (Homo sapiens (Human), UniProt P01116+P62937, G13D); test: Ras-Raf (BRAF RBD) disruption / FRET / MOA assay, KRAS G13D; type: biochemical; settings: read-out: IC50* KRAS G13D FRET data
Summary of the method: as §1

[3] = target: K-Ras G13C (Homo sapiens (Human), UniProt P01116+P62937, G13C); test: Ras-Raf (BRAF RBD) disruption / FRET / MOA assay, KRAS G13C; type: biochemical; settings: KRAS G13C; Ras-Raf disruption/FRET/MOA assay; read-out: IC50* KRAS G13C FRET data
Summary of the method: as §1

[4] = test system: NCI-H358 (K-Ras G12C); test: CellTiter-Glo cell viability assay, NCI-H358; type: cell-based, human; settings: Homo sapiens, NCI-H358, 120 h, NCI-H358, 5-day treatment; class symbols; read-out: Additional H358 Cell Viability assay data (K-Ras G12C, IC50)
Summary of the method: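 Viability measured by CellTiter-Glo luminescence on day 5 following direct addition of compound to plated cells. Values expressed as percent of mean DMSO signal; curves fitted with a four-parameter logistic model.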

[5] = target: KRAS WT (Homo sapiens (Human), UniProt P01116+P62937); test: Ras-Raf (BRAF RBD) disruption / FRET / MOA assay, KRAS WT; type: biochemical; settings: read-out: IC50* KRAS WT FRET data
Summary of the method: as §1

[6] = target: NRAS G12C (Homo sapiens (Human), UniProt P01111+P62937, G12C); test: Ras-Raf (BRAF RBD) disruption / FRET / MOA assay, NRAS G12C; type: biochemical; settings: read-out: IC50* NRAS G12C FRET data
Summary of the method: as §1

[7] = target: KRAS G12S (Homo sapiens (Human), UniProt P01116+P62937, G12S); test: Ras-Raf (BRAF RBD) disruption / FRET / MOA assay, KRAS G12S; type: biochemical; settings: Ras-Raf disruption/FRET/MOA assay; class symbols; read-out: KRAS G12S FRET data IC50
Summary of the method: as §1

[8] = target: KRAS Q61H (Homo sapiens (Human), UniProt P01116+P62937, Q61H); test: Ras-Raf (BRAF RBD) disruption / FRET / MOA assay, KRAS Q61H; type: biochemical; settings: Ras-Raf disruption/FRET/MOA assay; class symbols; read-out: KRAS Q61H FRET data IC50
Summary of the method: (§2)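 TR-FRET disruption of nucleotide-loaded Ras binding to BRAF RBD via compound-driven ternary complex with cyclophilin A. Compound as 10-point 3-fold series from 30 μM final, 3 h at 25° C, then anti-His Eu-W1024 (10 nM) and anti-GST allophycocyanin (50 nM) for 1.5 h. IC50 from decreased FRET ratio versus DMSO.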

[9] = target: K-Ras G12C (Homo sapiens (Human), UniProt P01116+P62937, G12C); test: Ras-Raf (BRAF RBD) disruption / FRET / MOA assay, KRAS G12C; type: biochemical; settings: KRAS G12C; Ras-Raf disruption/FRET/MOA assay; read-out: IC50* KRAS G12C FRET data
Summary of the method: as §1

[10] = target: NRAS Q61R (Homo sapiens (Human), UniProt P01111+P62937, Q61R); test: Ras-Raf (BRAF RBD) disruption / FRET / MOA assay, NRAS Q61R; type: biochemical; settings: NRAS Q61R; Ras-Raf disruption/FRET/MOA assay; read-out: IC50* NRAS Q61R FRET data
Summary of the method: as §2

[11] = target: NRAS WT (Homo sapiens (Human), UniProt P01111+P62937); test: Ras-Raf (BRAF RBD) disruption / FRET / MOA assay, NRAS WT; type: biochemical; settings: read-out: IC50* NRAS WT FRET data
Summary of the method: as §2

[12] = target: KRAS G12D (Homo sapiens (Human), UniProt P01116+P62937, G12D); test: Ras-Raf (BRAF RBD) disruption / FRET / MOA assay, KRAS G12D; type: biochemical; settings: Ras-Raf disruption/FRET/MOA assay; class symbols; read-out: KRAS G12D FRET data IC50
Summary of the method: as §1

Chain of KRAS G12S (P01116-2 other isoform, or with tags, fused parts or gaps G12S): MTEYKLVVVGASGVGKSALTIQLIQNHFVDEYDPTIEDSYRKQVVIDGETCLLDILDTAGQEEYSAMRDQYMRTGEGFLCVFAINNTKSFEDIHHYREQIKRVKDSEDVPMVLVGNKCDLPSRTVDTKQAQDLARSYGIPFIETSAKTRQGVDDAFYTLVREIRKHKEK
Chain of KRAS G12S (P62937 whole entry): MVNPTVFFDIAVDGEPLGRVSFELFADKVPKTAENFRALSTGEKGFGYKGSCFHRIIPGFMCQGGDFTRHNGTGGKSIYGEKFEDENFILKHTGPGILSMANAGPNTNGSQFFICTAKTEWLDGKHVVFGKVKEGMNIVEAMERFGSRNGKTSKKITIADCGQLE
Chain of KRAS G12D (P01116-2 other isoform, or with tags, fused parts or gaps G12D): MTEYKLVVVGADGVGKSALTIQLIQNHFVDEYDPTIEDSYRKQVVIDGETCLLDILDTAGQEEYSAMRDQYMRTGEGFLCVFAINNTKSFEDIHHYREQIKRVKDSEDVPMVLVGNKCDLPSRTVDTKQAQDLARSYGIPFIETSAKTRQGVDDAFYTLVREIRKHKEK
Chain of KRAS G12D (P62937 whole entry): as the sequence (P62937 whole entry) above
Chain of NRAS Q61R (P01111 whole entry Q61R): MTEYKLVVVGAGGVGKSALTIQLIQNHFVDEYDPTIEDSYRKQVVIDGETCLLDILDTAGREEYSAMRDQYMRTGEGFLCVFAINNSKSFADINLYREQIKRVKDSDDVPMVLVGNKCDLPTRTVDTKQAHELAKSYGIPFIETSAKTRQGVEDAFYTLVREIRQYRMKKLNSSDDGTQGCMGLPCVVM
Chain of NRAS Q61R (P62937 whole entry): as the sequence (P62937 whole entry) above
Chain of K-Ras G12C (P01116-2 other isoform, or with tags, fused parts or gaps G12C): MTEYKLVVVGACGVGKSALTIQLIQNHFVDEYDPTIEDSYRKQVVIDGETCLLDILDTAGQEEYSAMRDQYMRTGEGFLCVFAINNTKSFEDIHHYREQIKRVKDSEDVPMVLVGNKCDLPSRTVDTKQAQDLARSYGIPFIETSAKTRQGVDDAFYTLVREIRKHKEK
Chain of K-Ras G12C (P62937 whole entry): as the sequence (P62937 whole entry) above
Chain of KRAS Q61H (P01116-2 other isoform, or with tags, fused parts or gaps Q61H): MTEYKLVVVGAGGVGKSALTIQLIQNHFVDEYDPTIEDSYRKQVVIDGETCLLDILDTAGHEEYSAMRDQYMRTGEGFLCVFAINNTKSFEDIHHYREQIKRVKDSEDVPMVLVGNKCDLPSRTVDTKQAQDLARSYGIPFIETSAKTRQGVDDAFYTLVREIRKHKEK
Chain of KRAS Q61H (P62937 whole entry): as the sequence (P62937 whole entry) above
Chain of KRAS WT (P01116-2 other isoform, or with tags, fused parts or gaps): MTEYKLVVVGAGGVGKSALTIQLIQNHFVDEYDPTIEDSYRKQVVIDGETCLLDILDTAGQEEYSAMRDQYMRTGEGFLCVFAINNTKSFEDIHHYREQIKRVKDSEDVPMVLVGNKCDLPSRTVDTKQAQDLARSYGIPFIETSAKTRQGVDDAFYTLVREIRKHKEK
Chain of KRAS WT (P62937 whole entry): as the sequence (P62937 whole entry) above
Chain of K-Ras G13C (P01116-2 other isoform, or with tags, fused parts or gaps G13C): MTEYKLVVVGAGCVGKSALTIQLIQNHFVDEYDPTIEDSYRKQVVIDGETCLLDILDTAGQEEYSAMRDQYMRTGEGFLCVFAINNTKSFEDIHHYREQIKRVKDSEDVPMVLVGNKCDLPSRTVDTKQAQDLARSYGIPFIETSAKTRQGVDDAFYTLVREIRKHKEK
Chain of K-Ras G13C (P62937 whole entry): as the sequence (P62937 whole entry) above
Chain of KRAS G12V (P01116-2 other isoform, or with tags, fused parts or gaps G12V): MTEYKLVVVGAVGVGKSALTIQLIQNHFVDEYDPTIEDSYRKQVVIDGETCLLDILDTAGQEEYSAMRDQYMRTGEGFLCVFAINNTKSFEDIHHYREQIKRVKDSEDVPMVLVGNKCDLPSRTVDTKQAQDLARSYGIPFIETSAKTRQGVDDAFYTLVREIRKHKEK
Chain of KRAS G12V (P62937 whole entry): as the sequence (P62937 whole entry) above
Chain of KRAS G13D (P01116-2 other isoform, or with tags, fused parts or gaps G13D): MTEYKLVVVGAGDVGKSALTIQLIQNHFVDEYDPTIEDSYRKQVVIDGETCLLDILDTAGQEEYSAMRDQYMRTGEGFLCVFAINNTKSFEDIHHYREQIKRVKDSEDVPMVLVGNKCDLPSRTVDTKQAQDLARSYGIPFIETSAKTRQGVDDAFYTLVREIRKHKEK
Chain of KRAS G13D (P62937 whole entry): as the sequence (P62937 whole entry) above
Chain of NRAS WT (P01111 whole entry): as the sequence (P01111 whole entry Q61R) above, with R61Q counted along it
Chain of NRAS WT (P62937 whole entry): as the sequence (P62937 whole entry) above
Chain of NRAS G12C (P01111 whole entry G12C): as the sequence (P01111 whole entry Q61R) above, with G12C, R61Q counted along it
Chain of NRAS G12C (P62937 whole entry): as the sequence (P62937 whole entry) above

CCn1c(-c2cccnc2[C@H](C)OC)c2c3cc(ccc31)-c1cnc(o1)C[C@H](NC(=O)[C@@H](COC1CN(C(=O)C#CC(C)(C)N(C)C)C1)C(C)C)C(=O)N1CCC[C@H](N1)C(=O)OCC(C)(C)C2 (atropisomer, axis not shown) [Example A649]
IC50 [1]: > 10000 nM
IC50 [2]: > 10000 nM
IC50 [3]: > 10000 nM
IC50 [4]: 10 to 100 nM
IC50 [5]: > 10000 nM
IC50 [6]: 10 to 100 nM
IC50 [7]: > 10000 nM
IC50 [8]: > 10000 nM
IC50 [9]: 10 to 100 nM
IC50 [10]: > 10000 nM
IC50 [11]: > 10000 nM
IC50 [12]: > 10000 nM

CCn1c(-c2cccnc2[C@H](C)OC)c2c3cc(ccc31)-c1csc(n1)C[C@H](NC(=O)[C@H](C(C)C)N(C)C(=O)N1CCC3(CC1)CN(C(=O)/C=C/CN(C)C)C3)C(=O)N1CCC[C@H](N1)C(=O)OCC(C)(C)C2 (atropisomer, axis not shown) [Example A650]
IC50 [1]: 100 to 1000 nM
IC50 [2]: 100 to 1000 nM
IC50 [3]: 10 to 100 nM
IC50 [4]: 10 to 100 nM
IC50 [5]: 100 to 1000 nM
IC50 [6]: 10 to 100 nM
IC50 [7]: 100 to 1000 nM
IC50 [8]: 10 to 100 nM
IC50 [9]: 10 to 100 nM
IC50 [10]: 100 to 1000 nM
IC50 [11]: 100 to 1000 nM
IC50 [12]: 100 to 1000 nM

CCn1c(-c2cccnc2[C@H](C)OC)c2c3cc(ccc31)-c1csc(n1)C[C@H](NC(=O)[C@H](C(C)C)N(C)C(=O)N1CCC13CN(C(=O)C#CC(C)(C)N(C)C)C3)C(=O)N1CCC[C@H](N1)C(=O)OCC(C)(C)C2 (atropisomer, axis not shown) [Example A656]
IC50 [1]: 1000 to 10000 nM
IC50 [2]: 1000 to 10000 nM
IC50 [3]: 1000 to 10000 nM
IC50 [4]: 10 to 100 nM
IC50 [5]: 100 to 1000 nM
IC50 [6]: 100 to 1000 nM
IC50 [7]: 100 to 1000 nM
IC50 [8]: 10 to 100 nM
IC50 [9]: 100 to 1000 nM
IC50 [10]: 100 to 1000 nM
IC50 [11]: 100 to 1000 nM
IC50 [12]: 1000 to 10000 nM

CO[C@@H](C)c1ncccc1-c1c2c3cc(ccc3n1CC(F)(F)F)-c1csc(n1)C[C@H](NC(=O)[C@H](C(C)C)N(C)C(=O)N1CCN(C(=O)/C=C/CN(C)C)C3(CC3)C1)C(=O)N1CCC[C@H](N1)C(=O)OCC(C)(C)C2 (atropisomer, axis not shown) [Example A664]
IC50 [1]: 100 to 1000 nM
IC50 [2]: 10 to 100 nM
IC50 [3]: 10 to 100 nM
IC50 [4]: 10 to 100 nM
IC50 [5]: 10 to 100 nM
IC50 [6]: 10 to 100 nM
IC50 [7]: 10 to 100 nM
IC50 [8]: 10 to 100 nM
IC50 [9]: 10 to 100 nM
IC50 [10]: 10 to 100 nM
IC50 [11]: 10 to 100 nM
IC50 [12]: 10 to 100 nM

C=CC(=O)N1CC(N2CCN(C(=O)N(C)[C@H](C(=O)N[C@H]3Cc4nc(cs4)-c4ccc5c(c4)c(c(-c4cccnc4[C@H](C)OC)n5CC)CC(C)(C)COC(=O)[C@@H]4CCCN(N4)C3=O)C(C)C)CC2)C1 (atropisomer, axis not shown) [Example A668]
IC50 [1]: 100 to 1000 nM
IC50 [2]: 1000 to 10000 nM
IC50 [3]: 10 to 100 nM
IC50 [4]: 10 to 100 nM
IC50 [5]: 100 to 1000 nM
IC50 [6]: 10 to 100 nM
IC50 [7]: 100 to 1000 nM
IC50 [8]: 10 to 100 nM
IC50 [9]: 10 to 100 nM
IC50 [10]: 100 to 1000 nM
IC50 [11]: 100 to 1000 nM
IC50 [12]: 1000 to 10000 nM

CO[C@@H](C)c1ncccc1-c1c2c3cc(ccc3n1CC(F)(F)F)-c1nc(co1)C[C@H](NC(=O)[C@@H](COC1CN(C(=O)C#CC(C)(C)N(C)C)C1)C(C)C)C(=O)N1CCC[C@H](N1)C(=O)OCC(C)(C)C2 (atropisomer, axis not shown) [Example A674]
IC50 [1]: > 10000 nM
IC50 [2]: > 10000 nM
IC50 [3]: 1000 to 10000 nM
IC50 [4]: < 10 nM
IC50 [5]: > 10000 nM
IC50 [6]: 10 to 100 nM
IC50 [7]: > 10000 nM
IC50 [8]: 1000 to 10000 nM
IC50 [9]: 10 to 100 nM
IC50 [10]: > 10000 nM
IC50 [11]: > 10000 nM
IC50 [12]: > 10000 nM
